The source of these data is US20240207263A1, “SELECTIVE MODULATORS OF ATAXIA TELA[…] (ATM) KINASE AND USES THEREOF” (priority 2021, published 2024).

As usually defined, the IC50 is the concentration that gives 50% inhibition. The term microsomal CLint denotes a measure of how fast metabolising enzymes remove a compound, apart from limits set by blood flow.

Data set [1] deals with T1, aldehyde oxidase (AO) (Homo sapiens (Human), UniProt Q06278). As to the kind of experiment: in vitro. Here is the method:
All calculations were carried out using Microsoft Excel. Peak areas were determined from extracted ion chromatograms. The slope value, k, was determined by linear regression of the natural logarithm of the remaining percentage of the parent drug vs. incubation time curve.

Data set [2] addresses PIK3Cδ (Homo sapiens (Human), UniProt O00329). As to the kind of experiment: PI3K biochemical potency assay (Assay c), PIK3Cδ. The conditions noted are these: read-out: PI3Kδ IC50.
Experimental: Assay c): PI3K Biochemical Potency
(§1) 2.5 μl of kinase solution was added to each well of the 384-well assay plate, which contains 2.5 μl of compounds with serially diluted concentration. 2× substrate solution was prepared with PIP2 substrate and ATP in 1× kinase reaction buffer at 2-fold of the final concentration of each reagent in the assay. 5 μl of substrate solution was added to each well of the assay plate to start reaction. The assay plate was incubated at room temperature for 1 hour. 5 μl reaction mix was transferred to a new 384 well plate. 5 μl of ADP-Glo reagent (Promega, Cat. No. v9102/3) was added to each well of the new assay plate to stop the reaction. The plate was shaken slowly and equilibrated for 40 minutes. 10 μl kinase detection reagents were added to each well, which was equilibrated for 60 minutes before read on a plate reader (Envision) for luminescence.
Data set [3] addresses PIK3Cβ (p110β) (Homo sapiens (Human), UniProt P42338). Kind of data set: PI3K biochemical potency assay (Assay c), PIK3Cβ. Conditions: read-out: PI3Kβ IC50.
Experimental: Assay c): PI3K Biochemical Potency
as §1
Data set [4] addresses ATM (Homo sapiens (Human), UniProt Q13315). Kind of data set: biochemical. The class given is biochemical. Conditions: read-out: ATM IC50. The source says:
Assay a): ATM Biochemical Potency
Data was collected by Caliper.

Data set [5] has as its target ATM (phospho-ATM Ser1981) in SN38 treated HT-29 cells (Homo sapiens (Human), UniProt Q13315). Kind of data set: cell-based. Conditions: HT-29 cells, SN-38; read-out: SN-38 HT-29 cellular IC50. As to the method: Assay g): ATM SN-38 HT-29 Cellular Potency
SN38 causes single strand DNA breaks (SSBs) which are converted to double strand breaks (DSBs) during replication. ATM plays role of repairing DSBs. Inhibition of ATM was evaluated in SN38 treated HT-29 cells (ATCC, Cat #HTB-38) by high-Content Imaging System
The graphical views were then generated using Prism 7.0 (Graphpad).

Data set [6] concerns the target mTOR (Homo sapiens (Human), UniProt P42345). As to the kind of experiment: mTOR biochemical potency assay (Assay d). The conditions noted are these: read-out: mTor IC50.
Experimental: Assay d): mTOR Biochemical Potency
Solution of mTOR enzymes (Millipore, Cat. No. 14-770) was prepared in 1× kinase buffer at 4-fold of the final concentration (final concentration: 6 nM) in the assay. 2.5 μl of kinase solution was added to each well of the 384-well assay plate, which contains 2.5 μl of compounds with serially diluted concentration. 2× substrate solution was prepared with ULight-4E-BP1 (Thr37/46) Peptide (PE, Cat. No. TRF0128-M) and ATP in 1× kinase reaction buffer at 2-fold of the final concentration of each reagent in the assay. 5 μl of substrate solution was added to each well of the assay plate to start reaction. The assay plate was incubated at room temperature for 30 minutes. Detection solution of kinase quench buffer (EDTA) and Eu-anti-phospho-4E-BP1 antibody (Thr37/46) (PE, Cat. No. TRF0216-M) were prepared at 2-fold the desired final concentrations of each reagent in Lance detection buffer. 10 μl of detection solution buffer was added to each well of the assay plate.
Data set [7] has as its target PI3Kα (p110α/p85a) (Homo sapiens (Human), UniProt P42336). As to the kind of experiment: PI3K biochemical potency assay (Assay c), PI3Kα. Conditions: read-out: PI3Kα IC50.
Experimental: Assay c): PI3K Biochemical Potency
as §1
For data set [8], the target named is DNA-PK (Homo sapiens (Human), UniProt P78527). Kind of data set: DNA-PK biochemical assay (Assay e). Here is the method:
Assay e): DNA-PK Biochemical Assay
The final concentration: Substrate 0.2 ug/ml and ATP 20 uM. […] The plate was equilibrated for 2 hr at room temperature.

Data set [9] relates to phosp-KAP1 in MCF-7 cells. Kind of data set: phosp-KAP1 MCF-7 cellular potency assay (Assay f). It counts as cell-based. The conditions noted are these: Homo sapiens, MCF7; MCF-7 cells, etoposide; read-out: Etoposide MCF-7 cellular IC50.
Data set [10] addresses PIK3Cγ (pp110γ) (Homo sapiens (Human), UniProt P48736). Kind of data set: PI3K biochemical potency assay (Assay c), PIK3Cγ. Conditions: read-out: PI3Kγ IC50.
Experimental: Assay c): PI3K Biochemical Potency
as §1
Data set [11] addresses ATR (Homo sapiens (Human), UniProt Q13535). Kind of data set: ATR biochemical potency assay (Assay b). As to the method:
Assay b): ATR Biochemical Potency
The plate was incubated at room temperature for 10 minutes. 2× peptide solutions were prepared with FAM-labeled peptide and ATP in the 1× kinase base buffer. […] 40 μl of stop buffer was added to stop reaction. Data were collected by Caliper.

The target in data set [12] is T1, aldehyde oxidase (AO). The conditions noted are these: reference compounds of the human liver cytosolic system; cited from earlier work.
The conditions of data set [13]: cited from earlier work; for clearance in humans: Zientek et al. 2010.

SMILES strings stand for the structures. Some results are limits rather than exact numbers.

Sequence of ATM (Q13315 whole entry, looked up): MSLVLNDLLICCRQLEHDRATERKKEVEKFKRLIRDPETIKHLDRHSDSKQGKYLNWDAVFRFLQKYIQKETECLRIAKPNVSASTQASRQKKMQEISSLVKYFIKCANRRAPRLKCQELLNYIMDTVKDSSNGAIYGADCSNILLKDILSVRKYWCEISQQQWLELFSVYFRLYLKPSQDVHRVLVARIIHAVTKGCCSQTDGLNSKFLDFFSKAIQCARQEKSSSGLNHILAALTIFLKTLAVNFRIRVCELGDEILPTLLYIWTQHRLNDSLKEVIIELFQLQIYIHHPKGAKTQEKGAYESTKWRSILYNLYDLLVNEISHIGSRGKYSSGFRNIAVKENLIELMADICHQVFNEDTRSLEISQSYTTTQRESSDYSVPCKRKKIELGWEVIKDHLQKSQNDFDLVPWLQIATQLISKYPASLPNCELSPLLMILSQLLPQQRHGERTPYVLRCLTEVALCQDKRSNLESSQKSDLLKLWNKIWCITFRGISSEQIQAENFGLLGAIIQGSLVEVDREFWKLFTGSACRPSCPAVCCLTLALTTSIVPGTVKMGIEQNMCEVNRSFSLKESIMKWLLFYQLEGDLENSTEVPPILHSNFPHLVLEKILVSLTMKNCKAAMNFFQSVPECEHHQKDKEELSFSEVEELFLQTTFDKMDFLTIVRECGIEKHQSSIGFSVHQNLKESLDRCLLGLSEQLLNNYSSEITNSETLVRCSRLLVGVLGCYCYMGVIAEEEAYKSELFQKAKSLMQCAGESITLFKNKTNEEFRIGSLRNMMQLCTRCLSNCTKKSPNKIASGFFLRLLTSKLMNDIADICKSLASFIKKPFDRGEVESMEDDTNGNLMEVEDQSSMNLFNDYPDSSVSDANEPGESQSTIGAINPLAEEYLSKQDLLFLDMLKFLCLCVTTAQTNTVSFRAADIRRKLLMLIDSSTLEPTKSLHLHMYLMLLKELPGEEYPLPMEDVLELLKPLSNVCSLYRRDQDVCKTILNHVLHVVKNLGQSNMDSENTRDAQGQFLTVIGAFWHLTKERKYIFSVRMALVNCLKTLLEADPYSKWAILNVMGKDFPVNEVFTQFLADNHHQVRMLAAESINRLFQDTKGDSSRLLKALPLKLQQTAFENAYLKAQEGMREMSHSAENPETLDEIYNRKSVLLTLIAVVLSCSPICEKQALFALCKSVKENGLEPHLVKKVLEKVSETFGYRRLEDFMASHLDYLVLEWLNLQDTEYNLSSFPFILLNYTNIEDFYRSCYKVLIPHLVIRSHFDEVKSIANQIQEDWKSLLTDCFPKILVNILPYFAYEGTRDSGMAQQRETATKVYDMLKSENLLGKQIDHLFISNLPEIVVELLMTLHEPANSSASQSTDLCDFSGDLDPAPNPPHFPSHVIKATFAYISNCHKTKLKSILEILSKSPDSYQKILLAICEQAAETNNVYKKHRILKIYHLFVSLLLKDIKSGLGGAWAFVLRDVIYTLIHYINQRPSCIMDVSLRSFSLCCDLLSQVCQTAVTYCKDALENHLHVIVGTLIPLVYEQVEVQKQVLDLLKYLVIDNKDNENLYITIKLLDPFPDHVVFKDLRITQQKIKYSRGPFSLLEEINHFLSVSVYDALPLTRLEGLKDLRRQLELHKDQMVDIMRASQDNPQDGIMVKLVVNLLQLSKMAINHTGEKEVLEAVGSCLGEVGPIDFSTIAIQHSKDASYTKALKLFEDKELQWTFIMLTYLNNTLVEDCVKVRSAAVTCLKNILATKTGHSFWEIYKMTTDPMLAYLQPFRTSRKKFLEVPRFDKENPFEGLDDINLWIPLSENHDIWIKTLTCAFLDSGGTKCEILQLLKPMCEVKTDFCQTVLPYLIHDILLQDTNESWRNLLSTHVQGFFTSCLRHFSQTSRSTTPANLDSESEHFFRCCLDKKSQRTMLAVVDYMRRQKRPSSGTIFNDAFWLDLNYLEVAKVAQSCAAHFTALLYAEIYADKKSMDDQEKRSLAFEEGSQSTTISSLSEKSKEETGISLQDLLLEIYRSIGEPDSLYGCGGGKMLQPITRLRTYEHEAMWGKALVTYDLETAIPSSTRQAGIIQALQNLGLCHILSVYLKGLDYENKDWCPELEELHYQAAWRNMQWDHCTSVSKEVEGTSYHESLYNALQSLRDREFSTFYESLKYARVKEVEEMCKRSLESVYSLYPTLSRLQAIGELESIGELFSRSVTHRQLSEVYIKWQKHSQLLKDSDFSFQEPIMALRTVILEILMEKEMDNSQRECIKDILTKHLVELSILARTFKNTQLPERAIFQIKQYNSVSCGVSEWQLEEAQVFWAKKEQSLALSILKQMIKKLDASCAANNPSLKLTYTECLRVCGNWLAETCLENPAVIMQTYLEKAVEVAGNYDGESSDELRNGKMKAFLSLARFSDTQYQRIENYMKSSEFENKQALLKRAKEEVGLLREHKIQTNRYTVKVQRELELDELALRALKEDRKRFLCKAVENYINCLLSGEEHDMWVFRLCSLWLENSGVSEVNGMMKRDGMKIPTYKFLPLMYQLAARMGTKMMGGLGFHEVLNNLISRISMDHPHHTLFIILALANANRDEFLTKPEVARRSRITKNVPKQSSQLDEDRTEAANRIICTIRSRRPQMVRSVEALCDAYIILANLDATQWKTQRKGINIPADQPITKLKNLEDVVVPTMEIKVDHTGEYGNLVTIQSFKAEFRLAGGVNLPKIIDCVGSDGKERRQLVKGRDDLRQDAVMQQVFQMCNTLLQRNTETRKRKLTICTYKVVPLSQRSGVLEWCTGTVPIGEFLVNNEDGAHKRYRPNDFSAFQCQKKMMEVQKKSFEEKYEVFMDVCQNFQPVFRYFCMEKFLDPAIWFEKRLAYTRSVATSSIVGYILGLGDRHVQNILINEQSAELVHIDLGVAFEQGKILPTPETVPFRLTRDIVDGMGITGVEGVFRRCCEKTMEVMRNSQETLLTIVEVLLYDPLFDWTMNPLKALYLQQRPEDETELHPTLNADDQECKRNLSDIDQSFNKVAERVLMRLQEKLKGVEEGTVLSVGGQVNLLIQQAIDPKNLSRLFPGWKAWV
Sequence of PI3Kα (p110α/p85a) (P42336 whole entry, looked up): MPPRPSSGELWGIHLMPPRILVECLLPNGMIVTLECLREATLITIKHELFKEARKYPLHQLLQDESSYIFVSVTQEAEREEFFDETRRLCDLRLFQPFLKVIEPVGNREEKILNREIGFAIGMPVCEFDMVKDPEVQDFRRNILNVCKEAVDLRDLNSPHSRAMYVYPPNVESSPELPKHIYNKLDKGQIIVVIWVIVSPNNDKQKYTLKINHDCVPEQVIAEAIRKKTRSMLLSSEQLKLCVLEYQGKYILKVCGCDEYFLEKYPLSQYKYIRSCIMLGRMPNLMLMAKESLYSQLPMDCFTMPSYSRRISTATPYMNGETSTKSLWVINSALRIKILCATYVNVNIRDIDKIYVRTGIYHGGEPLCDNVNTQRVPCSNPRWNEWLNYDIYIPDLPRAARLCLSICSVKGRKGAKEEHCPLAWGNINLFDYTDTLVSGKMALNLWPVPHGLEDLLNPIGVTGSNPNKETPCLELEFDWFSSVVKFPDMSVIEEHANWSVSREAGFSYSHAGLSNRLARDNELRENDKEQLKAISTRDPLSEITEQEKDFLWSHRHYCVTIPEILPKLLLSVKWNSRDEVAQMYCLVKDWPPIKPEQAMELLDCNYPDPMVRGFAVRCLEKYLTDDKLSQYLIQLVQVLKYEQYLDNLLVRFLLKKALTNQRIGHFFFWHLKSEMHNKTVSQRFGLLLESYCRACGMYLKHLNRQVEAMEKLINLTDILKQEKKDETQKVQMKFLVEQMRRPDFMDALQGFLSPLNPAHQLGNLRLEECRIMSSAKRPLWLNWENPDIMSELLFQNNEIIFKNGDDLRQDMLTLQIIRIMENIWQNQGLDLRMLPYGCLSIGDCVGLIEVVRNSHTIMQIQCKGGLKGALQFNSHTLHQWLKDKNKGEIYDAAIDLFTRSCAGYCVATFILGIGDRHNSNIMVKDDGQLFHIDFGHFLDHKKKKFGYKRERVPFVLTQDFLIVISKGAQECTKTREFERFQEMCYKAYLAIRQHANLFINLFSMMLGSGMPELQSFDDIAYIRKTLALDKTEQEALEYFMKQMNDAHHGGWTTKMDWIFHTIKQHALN
Sequence of PI3Kα (p110α/p85a) (P27986 whole entry partner, looked up): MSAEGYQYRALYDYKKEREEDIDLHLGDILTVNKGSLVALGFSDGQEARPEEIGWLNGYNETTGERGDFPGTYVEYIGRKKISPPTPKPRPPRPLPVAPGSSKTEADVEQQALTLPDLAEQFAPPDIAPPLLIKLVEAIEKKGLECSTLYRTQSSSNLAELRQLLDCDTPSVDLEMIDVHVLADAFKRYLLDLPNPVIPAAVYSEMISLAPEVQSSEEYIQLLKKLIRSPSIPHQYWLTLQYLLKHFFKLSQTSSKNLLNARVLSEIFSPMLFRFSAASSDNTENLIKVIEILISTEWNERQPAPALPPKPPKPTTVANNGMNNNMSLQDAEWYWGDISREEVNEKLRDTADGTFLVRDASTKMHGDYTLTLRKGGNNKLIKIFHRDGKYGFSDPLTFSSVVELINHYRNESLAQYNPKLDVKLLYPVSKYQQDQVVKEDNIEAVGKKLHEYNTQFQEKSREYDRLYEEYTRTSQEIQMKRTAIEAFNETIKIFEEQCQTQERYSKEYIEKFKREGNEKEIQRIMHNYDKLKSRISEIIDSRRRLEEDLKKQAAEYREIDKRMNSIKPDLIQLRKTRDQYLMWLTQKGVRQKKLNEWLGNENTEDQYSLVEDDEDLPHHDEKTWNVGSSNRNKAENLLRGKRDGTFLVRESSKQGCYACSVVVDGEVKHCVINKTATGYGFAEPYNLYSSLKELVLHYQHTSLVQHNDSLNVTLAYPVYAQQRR
Sequence of ATM (phospho-ATM Ser1981) in SN38 treated HT-29 cells (Q13315 whole entry, looked up): as the sequence (Q13315 whole entry, looked up) above

In the case of `CC(C)n1c(=O)n(C)c2cnc3cc(F)c(-c4ccc(OCCCN5CCCCC5)nc4)cc3c21` [AZD1390], the AO substrate classification entry in data set [1] (human liver cytosol) is reported as “strong AO substrate”.
For the compound `CC(C)n1c(=O)n(C)c2nnc3ccc(-c4ccc(COCCN5CCC(C)(C)CC5)nc4)cc3c21` [Example 31, 8-(6-((2-(4,4-dimethylpiperidin-1-yl)ethoxy)methyl)pyridin-3-yl)-1-isopropyl-3-methyl-1H-imidazo[4,5-c]cinnolin-2(3H)-one], the IC50 in data set [2] was over 10 µM; in data set [3], over 10 µM; in data set [4], 0.011 µM; in data set [5] it was 0.029 µM; in data set [6], over 10 µM; in data set [7], over 10 µM. Moreover, the IC50 in data set [8] is over 10 µM; in [9], 0.016 µM; in data set [10], over 10 µM; in data set [11], over 10 µM.
`CO[C@H]1C[C@H](n2c(=O)n(C)c3nnc4ccc(-c5ccc([C@@H](C)OCCN6CCCC6)nc5)cc4c32)C1` [Example 162, 1-(trans-3-methoxycyclobutyl)-3-methyl-8-(6-((R)-1-(2-(pyrrolidin-1-yl)ethoxy)ethyl)pyridin-3-yl)-1,3-dihydro-2H-imidazo[4,5-c]cinnolin-2-one]: the IC50 in data set [2] is over 10 µM; in data set [3], over 10 µM; in [4], 0.007 µM; in data set [5] it was 0.0055 µM; in data set [6] it was over 10 µM; in data set [7] it was over 10 µM. For the same compound, the IC50 in data set [8], in [10] and in data set [11] was over 10 µM throughout.
In the case of `CC(C)n1c(=O)n(C)c2nnc3ccc(-c4ccc([C@@H](OCCN5CCCC5)C(F)(F)F)nc4)cc3c21` [Example 185, (R)-1-isopropyl-3-methyl-8-(6-(2,2,2-trifluoro-1-(2-(pyrrolidin-1-yl)ethoxy)ethyl)pyridin-3-yl)-1,3-dihydro-2H-imidazo[4,5-c]cinnolin-2-one], the IC50 is over 10 µM in data set [2]; over 10 µM in data set [3]; 0.292 µM in data set [4]; over 10 µM in [6]; over 10 µM in [7]; over 10 µM in data set [8]. The IC50 in data set [10] and in [11] was over 10 µM throughout.
In the case of `OCCn1cc(-c2cnc3nnn(Cc4ccc5ncccc5c4)c3n2)cn1` [PF-04217903, 2-[4-[3-(quinolin-6-ylmethyl)triazolo[4,5-b]pyrazin-5-yl]pyrazol-1-yl]ethanol], the “AO substrate classification (reported)” value in data set [12] is “weak AO substrate”.
In the case of `CCN(C(C)=O)c1cccc(-c2ccnc3c(C#N)cnn23)c1` [Reference compound 4, Zaleplon], in data set [1] (human, cytosol), the microsomal CLint is 0.893 µL/min/mg. Further, in [13], the clearance in humans is reported as 16 mL/min/kg and the “clearance in humans corresponding to liver blood flow” value was about 80 % liver blood flow.
As to `OCCn1cc(-c2cnc3nnn(Cc4ccc5ncccc5c4)c3n2)cn1` [Reference compound 5, PF-04217903], in data set [13], the clearance in humans is on record as 6 mL/min/kg and the “clearance in humans corresponding to liver blood flow” value is about 30 % liver blood flow.
For the compound `CCN(C(C)=O)c1cccc(-c2ccnc3c(C#N)cnn23)c1` [Zaleplon, N-[3-(3-cyanopyrazolo[1,5-a]pyrimidin-7-yl)phenyl]-N-ethylacetamide], in data set [12], the “AO substrate classification (reported)” value was “strong AO substrate”.
